# Columns and labels:
# [1] = test system: Motorik des Magen-Darmtrakts und der ableitenden Harnwege; assay: Stimulation of the motility of the gastrointestinal tract and the efferent urinary tract; type: in vivo, Hund; details: dose needed relative to the peptides of the invention
# [2] = test system: Motorik des Magen-Darmtrakts und der ableitenden Harnwege; assay: as above; type: in vivo, Hund; details: parent compound compared with analogues varied in positions A-D
# Experimental: Die erfindungsgemässen Peptide stimulieren die Motorik des Magen-Darmtrakts und der ableitenden Harnwege beim Hund und beim Menschen. Sie steigern den Ruhetonus und die segmentale Kontraktionsaktivität des Darmes und fördern dadurch sekundär auch die Wasserresorption aus dem Darmlumen (lleum).
# Die erfindungsgemässen Peptide wirken intravenös bereits in einer Dosierung von 10 ng/kg und können unbedenklich auch in höherer Dosierung angewandt werden. […] Das parasympathomimetisch wirkende Carbaminoylcholin benötigt für die gleiche Wirkung etwa eine 10 fache Dosierung. So zählen die erfindungsgemässen Peptide zu den stärksten Effektoren der Motorik des Magen-Darmtrakts und der ableitenden Harnwege. Ihre morphinähnliche Wirkung ist zwar bekannt, doch überschreiten bei der geringen erforderlichen Dosierung weder nach intravenöser, subcutaner noch intranasaler Anwendung die wirksamen Dosen die Blut-Hirn-Schranke. Sie üben deshalb in der für den erfindungsgemässen Zweck erforderlichen Menge keine Wirkungen im Zentralnervensystem aus.
Compound,höhere Dosierung für ähnliche / gleiche Wirkung [1] [fach],"Wirkung (motility stimulation, in words) [2]"
C[N+](C)(C)CCOC(N)=O [Carbaminoylcholin],~10,
Enkephalin,,sehr schwach wirksamen

# Reference: patent EP0028716B1, “Motility increasing peptides and their use” (HOECHST AKTIENGESELLSCHAFT, priority 1979, dated 1986)
